A word on the logP: it is the decadic logarithm of the partition coefficient of the neutral form, usually between octanol and water. The low end stands for a more hydrophilic compound, the high end for a more lipophilic compound.

Consider 22 compounds from the OPERA property sets (Mansouri et al. 2018).

Turning to `CCNC(=O)c1cc2ccccc2[nH]1`, the logP was found to be 2.32.

Turning to `CCNC(=O)c1cc2ccccc2o1`, the logP was 2.22.

Regarding `CCOC(=O)c1cc2ccccc2[nH]1`, the logP was found to be 3.22.

The compound `CCCNC(=O)c1ccc[nH]1` had a logP of 1.25.

In turn, `CNC(=O)c1cc2ccccc2o1` had a logP of 1.85.

`CNC(=O)c1cccn1C`: the logP worked out at 0.71.

As to `NC(=O)c1ccc[nH]1`, the log partition coefficient (logP) was determined as 0.09.

As for `CNC(=O)c1cc2ccccc2[nH]1`, the logP worked out at 1.9.

In turn, `CCCNC(=O)c1ccoc1` gave a logP of 1.2.

For `CCNC(=O)c1c[nH]c2ccccc12`, the logP amounted to 1.62.

In the case of `CCCNC(=O)c1cccn1C`, the logP was 1.63. The logP values of the last two compounds are within 0.2 log units of each other.

Turning to `CCNC(=O)c1ccc[nH]1`, the logP is 0.8.

Turning to `CCCNC(=O)c1cc2ccccc2[nH]1`, the logP amounted to 2.8.

In the case of `Cn1cccc1C(N)=O`, the logP was determined as 0.45.

In the case of `O=[N+]([O-])c1cncnc1`, the logP was -0.05.

As to `COC(=O)c1cccn1C`, the logP stood at 1.8.

As for `CNC(=O)c1ccc[nH]1`, the logP was 0.42.

`CCNC(=O)c1cccn1C` registered a logP of 1.09.

As to `CCOC(=O)c1ccc[nH]1`, the logP was 1.73.

`CNC(=O)c1c[nH]c2ccccc12` yielded a logP of 1.25.

In turn, `CCCNC(=O)c1cc2ccccc2o1` gave a logP of 2.65.

Compound `CCOC(=O)c1cc2ccccc2o1` showed a logP of 3.05.
